Measured values taken from ChEMBL document CHEMBL1153292, “Atropisomeric small molecule Bcl-2 ligands: determination of bioactive conformation” (Bioorg Med Chem Lett, 2009).

The compounds below were run against Apoptosis regulator Bcl-2 (Homo sapiens, UniProt P10415) (assay: Inhibition of GST fused Bcl-2 binding to biotinylated 16 mer BH3 peptide by HTRF-LANCE assay).
Sequence of Apoptosis regulator Bcl-2 (P10415 whole entry, the tested form may be a part): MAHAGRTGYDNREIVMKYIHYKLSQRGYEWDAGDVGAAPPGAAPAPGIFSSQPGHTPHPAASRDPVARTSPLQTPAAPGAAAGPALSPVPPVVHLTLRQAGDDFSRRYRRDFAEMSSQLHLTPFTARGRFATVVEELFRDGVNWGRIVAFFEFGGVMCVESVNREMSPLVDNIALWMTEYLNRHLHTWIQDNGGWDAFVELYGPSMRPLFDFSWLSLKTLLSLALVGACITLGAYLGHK
Compound `CCCCN(CCCC)C(=O)c1cc(C)n(-c2cccc(C)c2C(=O)N2Cc3ccccc3C[C@H]2CN)n1` has an IC50 of 175 nM. Work on `CCCCN(CCCC)C(=O)c1nn(-c2cccc(C)c2C(=O)N2Cc3ccccc3C[C@H]2CN)c(C)c1Cl` yielded an IC50 of 42 nM. Work on `Cc1cccc(-n2nc(C(=O)N(c3ccccc3)c3ccccc3)cc2C)c1C(=O)N1Cc2ccccc2CC1CO` (configuration not stated) yielded an IC50 of 600 nM. With `Cc1cccc(-n2nc(C(=O)N(c3ccccc3)c3ccccc3)cc2C)c1C(=O)N1Cc2ccccc2C[C@@H]1CO` (atropisomer aR; form 1) the IC50 was 1100 nM. `Cc1cccc(-n2nc(C(=O)N(c3ccccc3)c3ccccc3)cc2C)c1C(=O)N1Cc2ccccc2C[C@@H]1CO` (atropisomer aR; form 2) showed an IC50 of 6100 nM. Work on `Cc1cccc(-n2nc(C(=O)N(c3ccccc3)c3ccccc3)cc2C)c1C(=O)N1Cc2ccccc2C[C@@H]1CO` (atropisomer aR; form 3) yielded an IC50 of 390 nM. `Cc1cccc(-n2nc(C(=O)N(c3ccccc3)c3ccccc3)cc2C)c1C(=O)N1Cc2ccccc2C[C@H]1CO` (atropisomer aS) gave an IC50 of 210 nM.
